# From ChEMBL document CHEMBL3132769, “Fragment growing to retain or alter the selectivity of anchored kinase hinge-binding fragments” (Medchemcomm, 2014)
# Legend:
# [1] = target: T1, Serine/threonine-protein kinase D3 (Homo sapiens) (UniProt O94806); test: Inhibition of human full length PKD3 expressed in baculovirus assessed as substrate phosphorylation using fluorescence-labelled peptides as substrate at 95 uM after 90 mins by microfluidic peptide phosphorylation assay
# T1 sequence (whole entry): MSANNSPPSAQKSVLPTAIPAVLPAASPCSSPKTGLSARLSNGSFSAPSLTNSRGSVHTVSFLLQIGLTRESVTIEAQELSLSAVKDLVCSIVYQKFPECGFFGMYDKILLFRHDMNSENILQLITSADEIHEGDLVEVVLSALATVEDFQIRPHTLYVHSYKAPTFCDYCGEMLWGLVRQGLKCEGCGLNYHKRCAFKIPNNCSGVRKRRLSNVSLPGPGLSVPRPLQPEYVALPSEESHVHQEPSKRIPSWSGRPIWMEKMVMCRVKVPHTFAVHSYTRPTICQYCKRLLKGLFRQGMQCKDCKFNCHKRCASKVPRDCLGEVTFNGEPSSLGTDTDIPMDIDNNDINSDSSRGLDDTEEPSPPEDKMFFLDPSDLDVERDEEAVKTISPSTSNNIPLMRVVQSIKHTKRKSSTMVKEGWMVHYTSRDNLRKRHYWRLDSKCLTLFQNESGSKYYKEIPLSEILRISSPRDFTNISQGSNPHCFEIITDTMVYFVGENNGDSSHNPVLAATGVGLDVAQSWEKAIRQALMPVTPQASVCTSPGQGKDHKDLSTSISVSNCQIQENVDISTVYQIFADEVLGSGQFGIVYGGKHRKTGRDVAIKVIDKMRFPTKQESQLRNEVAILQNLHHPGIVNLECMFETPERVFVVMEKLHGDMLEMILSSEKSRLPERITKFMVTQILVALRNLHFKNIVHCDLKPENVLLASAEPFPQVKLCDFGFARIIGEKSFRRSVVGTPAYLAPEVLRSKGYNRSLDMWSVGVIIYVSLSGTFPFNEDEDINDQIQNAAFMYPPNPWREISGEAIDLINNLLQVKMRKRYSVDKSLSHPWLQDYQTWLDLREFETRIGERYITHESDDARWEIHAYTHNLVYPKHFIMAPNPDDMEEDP
# Homo sapiens = organism: Homo sapiens; test: Inhibition of human P70S6K catalytic domain expressed in baculovirus assessed as substrate phosphorylation using fluorescence-labelled peptides as substrate at 0.2 uM after 90 mins by microfluidic peptide phosphorylation assay
# [2] = tested on: Tyrosine-protein kinase ABL1 (Homo sapiens), P00519 [H396P]; test: Inhibition of human truncated ABL H396P mutant expressed in baculovirus assessed as substrate phosphorylation using fluorescence-labelled peptides as substrate at 0.2 uM after 90 mins by microfluidic peptide phosphorylation assay
# [3] = target: T2, Serine/threonine-protein kinase Chk1 (Homo sapiens) (UniProt O14757); test: Inhibition of human full length CHK1 expressed in baculovirus assessed as substrate phosphorylation using fluorescence-labelled peptides as substrate at 2 uM after 90 mins by microfluidic peptide phosphorylation assay
# T2 sequence (whole entry): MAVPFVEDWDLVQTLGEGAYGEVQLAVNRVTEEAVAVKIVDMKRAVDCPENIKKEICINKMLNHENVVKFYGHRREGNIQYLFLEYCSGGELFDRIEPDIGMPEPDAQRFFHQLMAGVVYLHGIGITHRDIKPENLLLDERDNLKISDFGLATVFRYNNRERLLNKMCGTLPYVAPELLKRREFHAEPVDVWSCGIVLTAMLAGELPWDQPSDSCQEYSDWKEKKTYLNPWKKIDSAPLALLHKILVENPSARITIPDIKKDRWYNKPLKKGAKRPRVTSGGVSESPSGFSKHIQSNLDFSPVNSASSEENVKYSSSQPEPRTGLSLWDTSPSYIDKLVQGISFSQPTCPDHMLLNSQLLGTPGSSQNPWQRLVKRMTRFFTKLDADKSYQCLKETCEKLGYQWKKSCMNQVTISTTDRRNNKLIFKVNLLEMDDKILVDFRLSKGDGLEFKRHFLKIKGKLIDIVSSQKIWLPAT
# [4] = target: T3, Testis-specific serine/threonine-protein kinase 2 (Homo sapiens) (UniProt Q96PF2); test: Inhibition of human full length TSSK2 expressed in baculovirus assessed as substrate phosphorylation using fluorescence-labelled peptides as substrate at 0.06 uM after 90 mins by microfluidic peptide phosphorylation assay
# T3 sequence (whole entry): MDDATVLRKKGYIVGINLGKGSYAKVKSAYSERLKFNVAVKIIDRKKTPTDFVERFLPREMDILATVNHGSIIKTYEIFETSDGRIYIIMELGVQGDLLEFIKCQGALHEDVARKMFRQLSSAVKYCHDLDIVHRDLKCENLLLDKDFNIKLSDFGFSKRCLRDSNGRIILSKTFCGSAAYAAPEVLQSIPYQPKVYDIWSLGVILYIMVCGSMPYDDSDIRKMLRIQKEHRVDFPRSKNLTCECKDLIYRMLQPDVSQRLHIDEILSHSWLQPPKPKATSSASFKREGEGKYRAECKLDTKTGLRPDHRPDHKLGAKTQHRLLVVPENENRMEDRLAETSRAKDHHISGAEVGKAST
# [5] = target: MAP kinase-activated protein kinase 3 (Homo sapiens) (UniProt Q16644); settings: 0.1 uM
# Description: Inhibition of human full length MAPKAPK3 expressed in Escherichia coli cell assessed as substrate phosphorylation using fluorescence-labelled peptides as substrate at 0.1 uM after 90 mins by microfluidic peptide phosphorylation assay
# [6] = target: Tyrosine-protein kinase Fer (Homo sapiens) (UniProt P16591); test: Inhibition of human FER catalytic domain expressed in baculovirus assessed as substrate phosphorylation using fluorescence-labelled peptides as substrate at […] after 90 mins by microfluidic peptide phosphorylation assay
# [7] = target: Serine/threonine-protein kinase PAK 2 (Homo sapiens) (UniProt Q13177); test: Inhibition of human truncated PAK2 expressed in Escherichia coli cell assessed as substrate phosphorylation using fluorescence-labelled peptides as substrate at 420 uM after 90 mins by microfluidic peptide phosphorylation assay
# [8] = target: Tyrosine-protein kinase ABL2 (Homo sapiens) (UniProt P42684); test: Inhibition of human truncated Arg expressed in baculovirus assessed as substrate phosphorylation using fluorescence-labelled peptides as substrate at 70 uM after 90 mins by microfluidic peptide phosphorylation assay
# [9] = target: Tyrosine-protein kinase Lck (Homo sapiens) (UniProt P06239); test: Inhibition of human full length LCK expressed in baculovirus assessed as substrate phosphorylation using fluorescence-labelled peptides as substrate at 70 uM after 90 mins by microfluidic peptide phosphorylation assay
# Tyrosine-protein kinase Lck (Homo sapiens), sequence (P06239 2-509 limits assumed): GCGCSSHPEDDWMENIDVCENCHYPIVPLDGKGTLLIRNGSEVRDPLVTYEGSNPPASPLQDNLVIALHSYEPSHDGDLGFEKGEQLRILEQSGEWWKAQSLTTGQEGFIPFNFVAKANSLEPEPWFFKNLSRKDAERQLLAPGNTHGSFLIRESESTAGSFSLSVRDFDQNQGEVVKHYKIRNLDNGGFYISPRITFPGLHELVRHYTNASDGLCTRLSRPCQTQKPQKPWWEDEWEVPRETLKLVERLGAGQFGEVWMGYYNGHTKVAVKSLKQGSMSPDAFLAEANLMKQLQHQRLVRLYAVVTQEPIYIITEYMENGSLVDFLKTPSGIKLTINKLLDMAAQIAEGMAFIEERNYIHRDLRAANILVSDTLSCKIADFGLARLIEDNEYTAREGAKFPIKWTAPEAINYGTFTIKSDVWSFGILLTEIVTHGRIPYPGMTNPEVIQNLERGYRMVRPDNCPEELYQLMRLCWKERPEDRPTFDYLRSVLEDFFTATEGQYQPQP
# Serine/threonine-protein kinase PAK 2 (Homo sapiens), sequence (Q13177 whole entry, the tested form may be a part): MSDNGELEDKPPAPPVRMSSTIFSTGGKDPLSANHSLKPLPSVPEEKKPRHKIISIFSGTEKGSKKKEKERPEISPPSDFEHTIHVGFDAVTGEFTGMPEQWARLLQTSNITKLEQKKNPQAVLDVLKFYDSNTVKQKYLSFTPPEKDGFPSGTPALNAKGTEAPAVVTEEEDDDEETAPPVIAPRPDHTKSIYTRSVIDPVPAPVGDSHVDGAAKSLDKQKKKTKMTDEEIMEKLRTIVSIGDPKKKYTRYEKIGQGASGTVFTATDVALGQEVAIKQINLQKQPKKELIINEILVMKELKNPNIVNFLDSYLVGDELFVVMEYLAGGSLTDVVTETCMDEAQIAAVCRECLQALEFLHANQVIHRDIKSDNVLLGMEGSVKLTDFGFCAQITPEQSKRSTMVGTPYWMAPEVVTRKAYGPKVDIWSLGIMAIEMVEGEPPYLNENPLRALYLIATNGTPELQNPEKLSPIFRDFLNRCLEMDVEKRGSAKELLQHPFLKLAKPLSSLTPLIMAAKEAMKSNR
# Tyrosine-protein kinase Fer (Homo sapiens), sequence (P16591 whole entry, looked up, the tested form may be a part): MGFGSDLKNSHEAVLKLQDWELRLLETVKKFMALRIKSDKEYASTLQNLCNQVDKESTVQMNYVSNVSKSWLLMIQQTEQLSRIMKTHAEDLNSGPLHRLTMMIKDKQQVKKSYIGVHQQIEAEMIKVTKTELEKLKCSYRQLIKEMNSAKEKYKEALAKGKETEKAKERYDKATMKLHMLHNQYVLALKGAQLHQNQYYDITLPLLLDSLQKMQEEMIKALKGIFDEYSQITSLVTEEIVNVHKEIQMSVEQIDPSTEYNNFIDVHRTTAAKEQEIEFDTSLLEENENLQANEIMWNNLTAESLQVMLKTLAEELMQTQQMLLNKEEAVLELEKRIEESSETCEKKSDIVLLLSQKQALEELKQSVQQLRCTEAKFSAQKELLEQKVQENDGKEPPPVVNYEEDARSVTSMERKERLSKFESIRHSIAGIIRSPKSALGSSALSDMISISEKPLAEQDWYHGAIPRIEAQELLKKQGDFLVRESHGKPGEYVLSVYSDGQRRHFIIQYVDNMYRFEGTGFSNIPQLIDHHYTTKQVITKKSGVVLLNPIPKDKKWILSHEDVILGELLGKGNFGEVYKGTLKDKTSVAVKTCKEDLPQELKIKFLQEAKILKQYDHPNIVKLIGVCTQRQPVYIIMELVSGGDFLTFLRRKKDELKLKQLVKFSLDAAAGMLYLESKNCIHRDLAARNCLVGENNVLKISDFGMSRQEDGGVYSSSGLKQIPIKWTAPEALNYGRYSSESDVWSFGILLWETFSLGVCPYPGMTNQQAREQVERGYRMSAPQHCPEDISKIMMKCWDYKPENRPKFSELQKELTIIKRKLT
# MAP kinase-activated protein kinase 3 (Homo sapiens), sequence (Q16644 whole entry, looked up, the tested form may be a part): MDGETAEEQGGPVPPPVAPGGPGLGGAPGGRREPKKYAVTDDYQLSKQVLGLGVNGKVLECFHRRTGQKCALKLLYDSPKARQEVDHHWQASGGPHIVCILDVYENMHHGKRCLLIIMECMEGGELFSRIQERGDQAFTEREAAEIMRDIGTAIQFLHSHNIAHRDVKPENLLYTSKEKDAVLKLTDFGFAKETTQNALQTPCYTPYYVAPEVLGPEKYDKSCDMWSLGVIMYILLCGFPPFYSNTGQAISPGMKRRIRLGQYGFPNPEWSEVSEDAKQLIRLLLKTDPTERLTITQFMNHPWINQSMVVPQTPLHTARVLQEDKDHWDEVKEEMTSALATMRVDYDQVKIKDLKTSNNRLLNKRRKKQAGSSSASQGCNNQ
# Tyrosine-protein kinase ABL2 (Homo sapiens), sequence (P42684 whole entry, the tested form may be a part): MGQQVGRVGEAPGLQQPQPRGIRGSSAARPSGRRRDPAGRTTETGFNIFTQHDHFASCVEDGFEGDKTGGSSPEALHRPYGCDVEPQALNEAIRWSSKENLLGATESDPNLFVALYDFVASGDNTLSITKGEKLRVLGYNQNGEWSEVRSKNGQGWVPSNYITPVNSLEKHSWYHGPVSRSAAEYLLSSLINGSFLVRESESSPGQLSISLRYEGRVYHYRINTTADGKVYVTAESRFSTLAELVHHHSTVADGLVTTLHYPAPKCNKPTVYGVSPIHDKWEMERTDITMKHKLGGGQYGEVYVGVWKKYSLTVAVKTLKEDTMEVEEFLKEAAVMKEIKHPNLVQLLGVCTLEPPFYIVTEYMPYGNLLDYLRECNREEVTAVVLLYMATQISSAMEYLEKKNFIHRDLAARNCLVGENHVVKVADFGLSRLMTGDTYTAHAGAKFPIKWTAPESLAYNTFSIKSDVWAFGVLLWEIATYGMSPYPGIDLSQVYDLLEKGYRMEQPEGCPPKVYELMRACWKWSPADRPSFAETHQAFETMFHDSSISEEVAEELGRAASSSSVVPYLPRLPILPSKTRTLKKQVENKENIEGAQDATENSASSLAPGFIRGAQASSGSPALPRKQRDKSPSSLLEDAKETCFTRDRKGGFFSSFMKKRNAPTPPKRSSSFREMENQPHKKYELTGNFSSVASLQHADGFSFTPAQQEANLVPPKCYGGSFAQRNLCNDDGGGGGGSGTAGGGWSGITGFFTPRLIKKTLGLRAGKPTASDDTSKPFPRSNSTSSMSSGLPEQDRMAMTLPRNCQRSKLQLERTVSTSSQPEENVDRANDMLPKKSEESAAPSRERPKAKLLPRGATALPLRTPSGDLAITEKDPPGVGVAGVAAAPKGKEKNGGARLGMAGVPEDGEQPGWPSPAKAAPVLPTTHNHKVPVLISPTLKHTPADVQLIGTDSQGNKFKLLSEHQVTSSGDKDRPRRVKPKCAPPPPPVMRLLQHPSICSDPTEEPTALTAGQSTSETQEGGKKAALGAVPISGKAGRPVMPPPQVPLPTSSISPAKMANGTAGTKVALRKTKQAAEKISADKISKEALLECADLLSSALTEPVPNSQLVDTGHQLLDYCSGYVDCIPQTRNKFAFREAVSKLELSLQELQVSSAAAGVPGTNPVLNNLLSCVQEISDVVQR
smiles,measurement,setting,value
NCCc1ccc(-c2ncnc3[nH]cnc23)cc1,inhibition,[1],61.5%
Clc1ccc(C2(c3ccc(-c4ncnc5[nH]cnc45)cc3)CCNCC2)cc1,inhibition,Homo sapiens,87.5%
same,inhibition,[2],4.5%
NC1CCN(c2ncnc3[nH]ccc23)CC1,inhibition,[3],1.5%
NC1(Cc2ccc(Cl)cc2)CCN(c2ncnc3[nH]ccc23)CC1,inhibition,[4],3%
C[C@H](CN(C)C)Oc1nc(Nc2cc3cccc(Cl)c3cn2)cnc1C#N,inhibition,[5],0%
COC(=O)c1cnc(Nc2cnc(C#N)cn2)cc1NCC1CCNCC1,inhibition,[6],1%
c1nc(N2CCOCC2)c2nc[nH]c2n1,inhibition,[7],67.5%
CNCc1ccc(-c2ncnc3[nH]cnc23)cc1,inhibition,[8],33%
same,inhibition,[9],38%
